Source: patent publication US10160867B2, “Benzoxaborole-containing coating resistant to cellulose-supportable fungus” (THE PENN STATE RESEARCH FOUNDATION, priority 2015, dated 2018)
≈ marks a conversion by molar mass, not a printed value.

Columns and labels:
Type in all cases: cell-based
Alternaria alternata [1] = test: 3 day MIC, broth microdilution in 25% PDB; conditions: 25% PDB; for MIC: 72 h, read-out: 3 day MIC
Method: (§1) Stock solutions (concentrations of between 4,000 μg/mL to 10,000 μg/mL; stored at −18° C.) of the above antifungals were prepared in dimethyl sulfoxide (DMSO). The stock solutions were further diluted into sterile 25% potato dextrose broth (PDB) so that the diluted solutions could be used for the antifungal susceptibility studies. This way, a typical microdilution study would reach a final ratio of about 0.5-2% v/v of DMSO in 25% PDB.
(§2) Spore inocula were prepared in sterile distilled water with 0.1% Tween® 20 (a polysorbate surfactant), and a hemocytometer was used to determine the spore density. Typically, the spore inoculum was prepared fresh prior to each study, and the inoculum was appropriately diluted to a final concentration of 0.4-1×10^5 spores/mL or colony-forming unit (CFU)/mL in each study. The spore suspension can be stored in a refrigerator at 4° C. for up to one week.
(§3) The studies were performed in flat bottom, 96-well microtiter plates (Greiner Bio-One, Frickenhausen, Germany).
(§4) Plates sealed with clear polyester film (VWR, Radnor, Pa.) were incubated at a temperature of about 25° C. The progress of fungal growth was monitored at 48 hours and 72 hours.

[2] = system: Penicillium brevicompactum; test: 3 day MIC, broth microdilution in 25% PDB; conditions: 25% PDB; for MIC: 72 h, read-out: 3 day MIC
Method: as §1, §2, §3, §4

Penicillium chrysogenum [3] = test: 3 day MIC, broth microdilution in 25% PDB; conditions: 25% PDB; for MIC: 72 h, read-out: 3 day MIC
Method: as §1, §2, §3, §4

Penicillium corylophilum = test: 3 day MIC, broth microdilution in 25% PDB; conditions: 25% PDB; for MIC: 72 h, read-out: 3 day MIC
Method: as §1, §2, §3, §4

Penicillium purpurogenum = test: 3 day MIC, broth microdilution in 25% PDB; conditions: Penicillium purpurogenum, 25% PDB; for MIC: 72 h, read-out: 3 day MIC
Method: as §1, §2, §3, §4

Stachybotrys chartarum [4] = test: 3 day MIC, broth microdilution in 25% PDB; conditions: 25% PDB; for MIC: 72 h, read-out: 3 day MIC
Method: as §1, §2, §3, §4

Alternaria alternata [5] = test: Fungus resistance test for painted surfaces containing antifungal additives (defacement rating); parameters: key: 10 = no defacement, 0 = completely defaced
Method: (§5) A Defacement Rating is measured by estimating the percentage of surface defacement with 10 being no defacement and 0 begin completely defaced.
(§6) This test was used to evaluate the resistance of paint films containing antifungal additives to surface fungal growth.
(§7) Olympic® Home interior flat latex paint (PPG Industries, Pittsburgh, Pa.) and Valspar® QuikHide White flat interior paint (Valspar Corporation, Minneapolis, Minn.) were used for all studies unless otherwise noted. Stock solutions of the antifungal additives of interest were prepared in reagent grade dimethyl sulfoxide (DMSO; Alfa Aesar, Ward Hill, Mass.). Additives were spiked (by adding appropriate amounts of the antifungal stock solutions) into the liquid paint at specified concentrations. Samples of the additive-spiked paint were vigorously mixed with a vortex mixer for at least one minute to ensure uniform dispersion of the additive in the paint. […] Studies that use other brands of paint followed the same protocol as described for those using the Olympic® Home interior flat latex paint and Valspar® QuikHide paint.
(§8) Test surfaces were prepared in triplicate. In most cases, the tested conditions were repeated on a different date, again in triplicate. […] Two coats of paint were applied with a polyester brush to completely cover both faces of the filter paper disc, allowing at least four hours drying time between coats.
(§9) Nutrient-Salts Agar (NSA) medium was prepared according to ASTM method G21-13 in 100×15 mm sterile polystyrene petri dishes (VWR® Radnor, Pa.) with a solidified agar layer of about 3 to about 6 mm (⅛ to ¼ in.) in depth. The agar was allowed to solidify for at least 24 hours before being used. The painted test filter paper discs were placed in the center of the agar plates in a biosafety hood while wearing clean nitrile gloves.
(§10) The paint coatings were evaluated against three representative cellulose-supportable fungi: Stachybotrys chartarum, Penicillium chrysogenum, and Alternaria alternata. […] Fungal isolates of Alternaria alternata and Penicillium chrysogenum were obtained from the Plant Pathology and Environmental Microbiology Department at Penn State University.
(§11) A spore suspension of each of these fungi was prepared by pouring a 20-mL portion of autoclaved deionized water containing 0.01% Tween® 20 onto a subculture of each fungal species. Spores were counted with the use of a hemocytometer (Hausser Scientific, Horsham, Pa.) under a compound light microscope. Spore suspensions of Stachybotrys chartarum and Penicillium chrysogenum were diluted to 1×10^6 spores/mL with autoclaved deionized water. Spore suspensions of Alternaria alternata were used “as is” in the range of 200,000 to 400,000 spores/mL.
(§12) Painted test surfaces were inoculated with a spray bottle or with a sterile cotton-tipped applicator. To inoculate the sample with a spray bottle, the spore suspension was sprayed twice on the painted test discs with an autoclaved spray bottle that delivered approximately 0.14 g of fluid per spray. To inoculate the sample with a cotton-tipped applicator, an autoclaved cotton-tipped applicator was submerged in approximately 400 μL of the spore inoculum solution (spore concentrations described above) and applied evenly over the surface of the painted test surface twice. A fresh autoclaved cotton-tipped applicator was used for the application of each painted disc. All the paint studies with Alternaria alternata and Stachybotrys chartarum were inoculated using the spray bottle method. For studies with Penicillium chrysogenum using Olympic® Home paint, the spray bottle inoculation method was used. For studies with Penicillium chrysogenum using Valspar® QuikHide paint, the cotton-tipped applicator inoculation method was used.
(§13) After inoculation, the NSA agar plates were sealed with Parafilm®.

Penicillium chrysogenum [6] = test: as above; parameters: key: 10 = no defacement, 0 = completely defaced
Method: as §5, §6, §7, §8, §9, §10, §11, §12, §13

Stachybotrys chartarum [7] = test: as above; parameters: key: 10 = no defacement, 0 = completely defaced
Method: as §5, §6, §7, §8, §9, §10, §11, §12, §13

[8] = +100 μg/mL in Olympic Home paint, 7 days
[9] = +100 μg/mL in Olympic Home paint, 14 days
[10] = +100 μg/mL in Olympic Home paint, 21 days
[11] = +200 μg/mL in Olympic Home paint, 7 days
[12] = +200 μg/mL in Olympic Home paint, 14 days
[13] = +200 μg/mL in Olympic Home paint, 21 days
[14] = +200 μg/mL in Valspar QuikHide paint, 7 days
[15] = +200 μg/mL in Valspar QuikHide paint, 14 days
[16] = +200 μg/mL in Valspar QuikHide paint, 21 days
[17] = +10 μg/mL in Olympic Home paint, 7 days
[18] = +10 μg/mL in Olympic Home paint, 14 days
[19] = +10 μg/mL in Olympic Home paint, 21 days

Row | SMILES | MIC (Alternaria alternata [1]) [µg/mL] | MIC [2] [µg/mL] | MIC (Penicillium corylophilum) [µg/mL] | MIC (Penicillium purpurogenum) [µg/mL] | MIC (Stachybotrys chartarum [4]) [µg/mL] | Average defacement rating ± standard deviation (Alternaria alternata [5]; [8]) | Average defacement rating ± standard deviation (Alternaria alternata [5]; [9]) | Average defacement rating ± standard deviation (Alternaria alternata [5]; [10]) | Average defacement rating ± standard deviation (Penicillium chrysogenum [6]; [8]) | Average defacement rating ± standard deviation (Penicillium chrysogenum [6]; [9]) | Average defacement rating ± standard deviation (Penicillium chrysogenum [6]; [10]) | Average defacement rating ± standard deviation (Stachybotrys chartarum [7]; [8]) | Average defacement rating ± standard deviation (Stachybotrys chartarum [7]; [9]) | Average defacement rating ± standard deviation (Stachybotrys chartarum [7]; [10]) | Average defacement rating ± standard deviation (Penicillium chrysogenum [6]; [11]) | Average defacement rating ± standard deviation (Penicillium chrysogenum [6]; [12]) | Average defacement rating ± standard deviation (Penicillium chrysogenum [6]; [13]) | Average defacement rating ± standard deviation (Penicillium chrysogenum [6]; [14]) | Average defacement rating ± standard deviation (Penicillium chrysogenum [6]; [15]) | Average defacement rating ± standard deviation (Penicillium chrysogenum [6]; [16]) | also measured
1 | O=C1C2CC=CCC2C(=O)N1SC(Cl)(Cl)Cl (centres unmarked) [Captan] | 1.6 (≈ 5.32 µM) | 0.78 (≈ 2.59 µM) | 0.78 (≈ 2.59 µM) | 0.78 (≈ 2.59 µM) | 0.39 (≈ 1.3 µM) | 0.1 ± 0.3 | 0.0 ± 0.0 | 0.0 ± 0.0 | 3.2 ± 1.8 | 0.0 ± 0.0 | 0.0 ± 0.0 | 2.9 ± 3.3 | 0.0 ± 0.0 | 0.0 ± 0.0 |  |  |  |  |  |  | MIC (Penicillium chrysogenum [3]): 0.78 µg/mL (≈ 2.59 µM); Average defacement rating ± standard deviation (Alternaria alternata [5]; +100 μg/mL in Olympic Home paint, 7 days, listed as captan): 0.1±0.3
2 | N#Cc1c(Cl)c(Cl)c(Cl)c(C#N)c1Cl [Chlorothalonil, chlorothalonil] | 0.78 (≈ 2.93 µM) | < 0.1 | 0.39 (≈ 1.47 µM) | 0.78 (≈ 2.93 µM) | < 0.1 | 1.9 ± 2.4 | 0.5 ± 1.8 | 0.5 ± 1.8 | 4.9 ± 1.9 | 0.0 ± 0.0 | 0.0 ± 0.0 | 5.8 ± 3.0 | 0.8 ± 1.8 | 0.6 ± 1.7 | 8.3 ± 1.4 | 0.8 ± 2.0 | 0.0 ± 0.0 | 10.0 ± 0.0 | 5.3 ± 0.6 | 0.3 ± 0.6 | MIC (Penicillium chrysogenum [3]): < 0.1 µg/mL; 3 day MIC (Stachybotrys chartarum [4]): <0.1 µg/mL
3 | OB1OCc2cc(Cl)ccc21 [Compound B8, 5-chloro-1,3-dihydro-2,1-benzoxaborol-1-ol] | 3.1 (≈ 18.4 µM) | 0.4 (≈ 2.38 µM) | 0.78 (≈ 4.63 µM) | 1.56 (≈ 9.26 µM) | 0.13 (≈ 0.772 µM) | 9.9±0.4 | 8.1 ± 1.5 | 7.8±1.5 | 7.3 ± 1.3 | 0.0 ± 0.0 | 0.0 ± 0.0 | 9.9±0.4 | 8.1 ± 1.9 |  | 10.0±0.0 | 9.5 ± 1.2 | 8.7 ± 2.3 |  |  |  | Average defacement rating ± standard deviation (Alternaria alternata [5]; [17]): 5.0 ± 1.0; Average defacement rating ± standard deviation (Alternaria alternata [5]; [18]): 4.7 ± 1.2; Average defacement rating ± standard deviation (Alternaria alternata [5]; [19]): 4.7 ± 1.2; Average defacement rating ± standard deviation (Stachybotrys chartarum [7]; [17]): 5.7 ± 4.9; Average defacement rating ± standard deviation (Stachybotrys chartarum [7]; [18]): 0.0 ± 0.0; Average defacement rating ± standard deviation (Stachybotrys chartarum [7]; [19]): 0.0 ± 0.0
4 | OB1OCc2cc(F)ccc21 [Compound B9, 5-Fluoro-1,3-dihydro-2,1-benzoxaborol-1-ol] | 1.6 (≈ 10.5 µM) | 0.2 (≈ 1.32 µM) | 0.39 (≈ 2.57 µM) | 0.78 (≈ 5.13 µM) | 0.13 (≈ 0.856 µM) | 7.4±1.8 | 3.8 ± 0.9 | 3.8±0.9 | 3.7 ± 1.5 | 0.0 ± 0.0 | 0.0 ± 0.0 | 9.9±0.3 | 4.4 ± 2.9 | 2.0 ± 2.8 | 10.0 ± 0.0 | 9.8 ± 0.4 | 6.7 ± 3.9 | 10.0 ± 0.0 | 10.0 ± 0.0 | 9.7 ± 0.6 | 
5 | CCCCNC(=O)OCC#CI [IPBC, 3-Iodo-2-propynylbutylcarbamate] |  |  |  |  |  | 9.9 ± 0.4 | 8.4 ± 2.7 | 7.5 ± 3.4 | 10.0 ± 0.0 | 9.4 ± 0.4 | 9.4 ± 0.4 | 9.9±0.3 | 8.1 ± 1.5 | 6.1±2.7 | 10.0 ± 0.0 | 10.0 ± 0.0 | 9.3 ± 0.8 | 10.0 ± 0.0 | 10.0 ± 0.0 | 10.0 ± 0.0 | 3 day MIC (Alternaria alternata [1]): 0.8 µg/mL; 3 day MIC [2]: 0.4 µg/mL; 3 day MIC (Penicillium chrysogenum [3]): 0.2 µg/mL; 3 day MIC (Penicillium corylophilum): 0.20 µg/mL; 3 day MIC (Penicillium purpurogenum): <0.1 µg/mL; 3 day MIC (Stachybotrys chartarum [4]): 0.8 µg/mL
6 | CCCCCCCCn1sccc1=O [OIT, 2-Octyl-4-isothiazolin-3-one] | 200 (≈ 937 µM) | < 0.1 | < 0.1 | < 0.1 | 0.1 (≈ 0.469 µM) | 8.1±0.3 | 6.9 ± 1.0 | 4.9±0.7 | 10.0 ± 0.0 | 10.0 ± 0.0 | 9.3 ± 1.5 | 9.9 ± 0.3 | 8.2 ± 2.5 | 6.9 ± 2.4 | 10.0 ± 0.0 | 10.0 ± 0.0 | 9.8 ± 0.4 | 10.0 ± 0.0 | 10.0 ± 0.0 | 10.0 ± 0.0 | MIC (Penicillium chrysogenum [3]): < 0.1 µg/mL
